Columns and labels:
BxGH99 = target: T1, BxGH99 (Bacteroides xylanisolvens, UniProt D6D1V7); assay: X-ray crystal structure; format: binding; settings: crystal soak about 10 mM
T1 sequence (D6D1V7 13-380): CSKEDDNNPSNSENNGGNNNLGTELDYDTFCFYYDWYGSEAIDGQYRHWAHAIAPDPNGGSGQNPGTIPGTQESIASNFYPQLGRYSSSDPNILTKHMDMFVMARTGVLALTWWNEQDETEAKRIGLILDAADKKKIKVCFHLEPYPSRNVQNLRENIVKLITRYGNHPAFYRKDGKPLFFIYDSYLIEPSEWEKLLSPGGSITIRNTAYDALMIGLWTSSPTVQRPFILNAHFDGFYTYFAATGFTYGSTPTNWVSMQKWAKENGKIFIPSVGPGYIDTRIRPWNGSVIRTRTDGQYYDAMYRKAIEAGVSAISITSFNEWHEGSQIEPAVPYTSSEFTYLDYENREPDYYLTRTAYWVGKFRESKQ

BT3775 = target: T2, BT3775 (Bacteroides thetaiotaomicron, UniProt Q8A191); assay: HPAEC, MALDI-TOF, linkage analysis; format: biochemical; settings: 10 mM MnCl2, pH 7.5, 37 °C
T2 sequence (Q8A191 1-224): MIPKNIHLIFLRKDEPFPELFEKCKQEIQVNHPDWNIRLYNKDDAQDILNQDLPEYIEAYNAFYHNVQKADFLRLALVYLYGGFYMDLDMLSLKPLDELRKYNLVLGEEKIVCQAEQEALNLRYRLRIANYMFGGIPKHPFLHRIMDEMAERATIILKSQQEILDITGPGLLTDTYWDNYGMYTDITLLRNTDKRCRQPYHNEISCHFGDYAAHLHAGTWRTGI

OC[C@H]1CNC[C@@H](O[C@H]2O[C@H](CO)[C@@H](O)[C@H](O)[C@@H]2O)[C@@H]1O [Man-IFG]
X-ray crystal structure (BxGH99; ternary complex with alpha-1,2-mannobiose): ternary with Man-IFG and α-1,2-mannobiose, was achieved by soaking native BxGH99 crystals

OC[C@H]1OC(O)[C@@H](O)[C@@H](O)[C@@H]1O (stereo partly shown) [mannose]
HPAEC, MALDI-TOF, linkage analysis (BT3775; donor GDP-mannose): mannobiose produced by BT3775 from mannose

OC[C@H]1O[C@H](O[C@@H]2C(O)O[C@H](CO)[C@@H](O)[C@@H]2O)[C@@H](O)[C@@H](O)[C@@H]1O (stereo partly drawn) [α-1,2-mannobiose]
X-ray crystal structure (BxGH99; ternary complex with Man-IFG): ternary with Man-IFG and α-1,2-mannobiose, was achieved by soaking native BxGH99 crystals

Nc1nc2c(ncn2[C@@H]2O[C@H](COP(=O)(O)OP(=O)(O)O[C@H]3O[C@H](CO)[C@@H](O)[C@H](O)[C@@H]3O)[C@@H](O)[C@H]2O)c(=O)[nH]1 [GDP-Mannose]
HPAEC, MALDI-TOF, linkage analysis (BT3775; acceptor mannose): using mannose as an acceptor and GDP-α-Man as the donor
